Laboratory results published in ChEMBL document CHEMBL3414527, “Engineering potent and selective analogues of GpTx-1, a tarantula venom peptide antagonist of the Na(V)1.7 sodium channel” (J Med Chem, 2015).
Bridge positions count the residues as written; N and C are the ends. Peptide text beside a SMILES is read from it.

Legend:
[1] = biological target: Sodium channel protein type 5 subunit alpha (Homo sapiens, UniProt Q14524); assay: Inhibition of human NaV1.5 at -140 mV holding potential by whole-cell patch clamp assay
[2] = biological target: Sodium channel protein type 4 subunit alpha (Homo sapiens, UniProt P35499); assay: Inhibition of human NaV1.4 at -140 mV holding potential by whole-cell patch clamp assay
[3] = biological target: T1, Sodium channel protein type 9 subunit alpha (Homo sapiens, UniProt Q15858); assay: Inhibition of human NaV1.7 at -140 mV holding potential by whole-cell patch clamp assay
[4] = biological target: Sodium channel protein type 9 subunit alpha (Mus musculus, UniProt Q62205); assay: Inhibition of NaV1.7 in C57BL/6 mouse DRG neurons at -140 mV holding potential by whole-cell patch clamp assay
[5] = biological target: T1, Sodium channel protein type 9 subunit alpha; assay: Inhibition of human NaV1.7 by patchXpress 700A electrophysiology method
[6] = Stability in human plasma assessed as intact compound remaining at 37 degC after 24 hrs by LC-MS method; format: ADME, cell-free; details: read-out: Stability
[7] = Stability in mouse plasma assessed as intact compound remaining at 37 degC after 24 hrs by LC-MS method; format: ADME, cell-free; details: read-out: Stability

Chain of Sodium channel protein type 5 subunit alpha (Q14524 whole entry): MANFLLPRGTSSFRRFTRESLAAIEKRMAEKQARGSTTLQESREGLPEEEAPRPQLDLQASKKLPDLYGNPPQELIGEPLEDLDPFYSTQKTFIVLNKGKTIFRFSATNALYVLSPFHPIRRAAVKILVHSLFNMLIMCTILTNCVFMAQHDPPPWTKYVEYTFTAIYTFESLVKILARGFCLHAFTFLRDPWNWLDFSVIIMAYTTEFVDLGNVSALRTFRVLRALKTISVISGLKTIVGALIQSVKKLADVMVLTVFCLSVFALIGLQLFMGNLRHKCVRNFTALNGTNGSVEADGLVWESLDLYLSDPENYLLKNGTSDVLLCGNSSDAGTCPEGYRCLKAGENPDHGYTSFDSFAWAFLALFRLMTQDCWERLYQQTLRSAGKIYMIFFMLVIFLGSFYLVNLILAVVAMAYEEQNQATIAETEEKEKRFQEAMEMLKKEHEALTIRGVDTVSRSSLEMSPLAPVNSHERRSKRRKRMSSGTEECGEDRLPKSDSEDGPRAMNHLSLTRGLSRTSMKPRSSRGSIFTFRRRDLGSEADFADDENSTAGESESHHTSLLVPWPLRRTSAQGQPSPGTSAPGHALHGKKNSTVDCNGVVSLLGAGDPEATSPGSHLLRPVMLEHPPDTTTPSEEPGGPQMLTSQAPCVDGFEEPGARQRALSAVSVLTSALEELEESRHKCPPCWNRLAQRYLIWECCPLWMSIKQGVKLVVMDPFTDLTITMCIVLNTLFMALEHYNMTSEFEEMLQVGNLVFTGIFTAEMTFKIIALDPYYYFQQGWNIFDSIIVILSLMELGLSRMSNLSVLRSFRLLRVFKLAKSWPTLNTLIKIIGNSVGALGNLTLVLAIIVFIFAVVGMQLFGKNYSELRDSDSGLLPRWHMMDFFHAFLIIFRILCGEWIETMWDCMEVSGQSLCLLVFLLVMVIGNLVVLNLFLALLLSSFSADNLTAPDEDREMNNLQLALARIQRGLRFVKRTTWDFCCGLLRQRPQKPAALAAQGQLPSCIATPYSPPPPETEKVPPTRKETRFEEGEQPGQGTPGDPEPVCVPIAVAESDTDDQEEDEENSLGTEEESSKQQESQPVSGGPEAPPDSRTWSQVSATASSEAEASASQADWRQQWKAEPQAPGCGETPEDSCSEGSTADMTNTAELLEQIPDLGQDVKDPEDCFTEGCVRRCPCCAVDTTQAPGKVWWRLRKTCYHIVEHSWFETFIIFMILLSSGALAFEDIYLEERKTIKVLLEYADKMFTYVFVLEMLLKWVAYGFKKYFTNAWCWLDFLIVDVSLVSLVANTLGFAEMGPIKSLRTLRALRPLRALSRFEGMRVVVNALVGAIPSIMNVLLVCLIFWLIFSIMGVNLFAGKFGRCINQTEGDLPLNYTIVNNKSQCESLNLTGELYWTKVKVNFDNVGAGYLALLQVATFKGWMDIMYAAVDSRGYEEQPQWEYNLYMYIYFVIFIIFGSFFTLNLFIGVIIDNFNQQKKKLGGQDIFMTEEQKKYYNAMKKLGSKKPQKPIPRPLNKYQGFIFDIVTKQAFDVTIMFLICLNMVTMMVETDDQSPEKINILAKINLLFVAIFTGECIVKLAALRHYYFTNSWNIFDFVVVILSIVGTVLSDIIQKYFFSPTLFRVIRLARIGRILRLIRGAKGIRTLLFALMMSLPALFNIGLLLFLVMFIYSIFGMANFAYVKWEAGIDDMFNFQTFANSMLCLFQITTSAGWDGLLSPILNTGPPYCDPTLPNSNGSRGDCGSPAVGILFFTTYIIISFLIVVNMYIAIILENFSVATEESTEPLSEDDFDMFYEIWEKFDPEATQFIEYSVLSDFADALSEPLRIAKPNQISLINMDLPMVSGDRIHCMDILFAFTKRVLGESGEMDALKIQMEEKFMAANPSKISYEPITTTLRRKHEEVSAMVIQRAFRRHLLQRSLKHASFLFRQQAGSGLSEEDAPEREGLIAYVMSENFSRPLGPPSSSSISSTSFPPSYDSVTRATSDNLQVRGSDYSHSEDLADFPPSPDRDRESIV
T1 sequence (Q15858 whole entry): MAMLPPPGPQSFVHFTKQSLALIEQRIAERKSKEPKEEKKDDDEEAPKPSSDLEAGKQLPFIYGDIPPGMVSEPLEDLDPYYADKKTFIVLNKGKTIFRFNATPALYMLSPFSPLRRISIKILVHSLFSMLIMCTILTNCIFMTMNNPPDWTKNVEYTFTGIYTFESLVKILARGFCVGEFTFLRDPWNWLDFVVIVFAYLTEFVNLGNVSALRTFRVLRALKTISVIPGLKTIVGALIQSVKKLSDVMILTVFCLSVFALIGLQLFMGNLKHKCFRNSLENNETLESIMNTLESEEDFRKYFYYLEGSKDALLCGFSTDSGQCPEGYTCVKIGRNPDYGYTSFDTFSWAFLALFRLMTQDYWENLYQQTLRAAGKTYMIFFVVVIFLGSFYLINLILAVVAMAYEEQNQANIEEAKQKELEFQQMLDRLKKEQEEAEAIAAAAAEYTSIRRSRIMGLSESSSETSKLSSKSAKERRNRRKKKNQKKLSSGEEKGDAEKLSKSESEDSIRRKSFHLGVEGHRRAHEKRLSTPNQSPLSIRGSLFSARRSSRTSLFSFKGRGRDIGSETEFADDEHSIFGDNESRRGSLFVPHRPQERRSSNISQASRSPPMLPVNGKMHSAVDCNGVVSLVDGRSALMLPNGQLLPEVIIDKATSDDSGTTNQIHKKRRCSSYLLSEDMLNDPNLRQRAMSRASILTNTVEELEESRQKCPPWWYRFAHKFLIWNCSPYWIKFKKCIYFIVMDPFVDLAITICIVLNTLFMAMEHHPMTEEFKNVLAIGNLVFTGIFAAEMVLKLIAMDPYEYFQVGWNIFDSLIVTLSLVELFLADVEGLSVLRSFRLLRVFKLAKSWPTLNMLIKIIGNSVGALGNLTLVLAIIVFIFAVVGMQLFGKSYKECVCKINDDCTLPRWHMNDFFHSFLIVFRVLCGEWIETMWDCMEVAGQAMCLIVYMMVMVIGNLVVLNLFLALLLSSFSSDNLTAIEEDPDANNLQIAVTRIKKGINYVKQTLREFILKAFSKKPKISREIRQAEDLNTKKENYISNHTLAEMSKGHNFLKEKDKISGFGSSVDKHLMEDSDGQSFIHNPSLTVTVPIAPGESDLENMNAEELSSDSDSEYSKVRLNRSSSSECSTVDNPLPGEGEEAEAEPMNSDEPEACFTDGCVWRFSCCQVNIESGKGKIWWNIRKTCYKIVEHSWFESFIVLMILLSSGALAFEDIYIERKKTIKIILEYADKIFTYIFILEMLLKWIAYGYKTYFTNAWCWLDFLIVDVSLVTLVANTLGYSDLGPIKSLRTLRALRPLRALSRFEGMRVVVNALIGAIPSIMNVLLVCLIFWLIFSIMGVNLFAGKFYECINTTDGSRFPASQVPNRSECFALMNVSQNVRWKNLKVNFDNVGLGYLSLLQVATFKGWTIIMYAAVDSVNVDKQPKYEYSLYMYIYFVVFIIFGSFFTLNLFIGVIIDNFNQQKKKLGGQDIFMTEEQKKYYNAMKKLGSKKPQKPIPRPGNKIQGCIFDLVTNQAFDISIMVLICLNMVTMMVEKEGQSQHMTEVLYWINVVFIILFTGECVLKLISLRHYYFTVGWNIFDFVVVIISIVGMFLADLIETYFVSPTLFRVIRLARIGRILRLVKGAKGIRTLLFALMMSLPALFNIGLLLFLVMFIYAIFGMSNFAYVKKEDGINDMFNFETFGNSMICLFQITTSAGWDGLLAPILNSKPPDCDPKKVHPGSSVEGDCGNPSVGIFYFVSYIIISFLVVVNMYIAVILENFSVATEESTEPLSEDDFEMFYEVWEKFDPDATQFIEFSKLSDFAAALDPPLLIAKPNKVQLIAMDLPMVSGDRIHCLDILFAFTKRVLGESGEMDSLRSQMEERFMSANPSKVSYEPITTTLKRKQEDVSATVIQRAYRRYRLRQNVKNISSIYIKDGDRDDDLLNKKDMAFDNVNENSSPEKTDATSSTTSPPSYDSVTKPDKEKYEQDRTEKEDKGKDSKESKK

Compound	IC50 [1] [nM]	IC50 [2] [nM]	IC50 [3] [nM]	IC50 [4] [nM]	IC50 [5] [nM]	remaining at 24 h [6] [%]	remaining at 24 h [7] [%]
CSCC[C@@H]1NC(=O)CNC(=O)[C@H](CCC(=O)O)NC(=O)[C@@H]2CSSC[C@H](NC(=O)[C@@H](N)Cc3ccc(O)cc3)C(=O)N[C@@H](CCC(N)=O)C(=O)N[C@@H](CCCCN)C(=O)N[C@@H](Cc3c[nH]c4ccccc34)C(=O)N[C@@H](CCSC)C(=O)N[C@@H](Cc3c[nH]c4ccccc34)C(=O)N[C@@H]([C@@H](C)O)C(=O)N[C@H]3CSSC[C@H](NC(=O)[C@H](C(C)C)NC1=O)C(=O)N[C@@H](CCCNC(=N)N)C(=O)N[C@@H](CC(C)C)C(=O)N[C@@H](Cc1c[nH]c4ccccc14)C(=O)N[C@H](C(=O)N[C@@H](CCCCN)C(=O)N[C@@H](CCCCN)C(=O)N[C@@H](CCCCN)C(=O)N[C@@H](CC(C)C)C(=O)N[C@@H](Cc1c[nH]c4ccccc14)C(=O)O)CSSC[C@H](NC(=O)[C@H](CCCCN)NC(=O)[C@H](CCCNC(=N)N)NC(=O)[C@H](CCC(=O)O)NC(=O)[C@H](CO)NC(=O)[C@H](CC(=O)O)NC3=O)C(=O)N2	90	30					
N=C(N)NCCC[C@@H]1NC(=O)[C@H](CO)NC(=O)[C@H](Cc2c[nH]cn2)NC(=O)[C@H](CC(=O)O)NC(=O)[C@H](CCCNC(=N)N)NC(=O)[C@H]2CSSC[C@@H]3NC(=O)[C@@H](N)CSSC[C@H](NC1=O)C(=O)N[C@H](C(=O)O)CSSC[C@H](NC(=O)[C@H](CC(N)=O)NC3=O)C(=O)N[C@@H](CO)C(=O)N[C@@H](CO)C(=O)N[C@@H](CCCCN)C(=O)N[C@@H](Cc1c[nH]c3ccccc13)C(=O)N2	> 25000	20	460				
CC[C@H](C)[C@@H]1NC(=O)[C@@H]2CSSC[C@@H]3NC(=O)[C@H](C(C)C)NC(=O)[C@H](CC(C)C)NC(=O)[C@H](CC(N)=O)NC(=O)[C@@H]4CCCN4C(=O)[C@H](CCCNC(=N)N)NC(=O)[C@H](CSSC[C@H](NC(=O)[C@@H](N)CC(=O)O)C(=O)N[C@@H](CC(C)C)C(=O)NCC(=O)N[C@@H](C)C(=O)N[C@@H](CCSC)C(=O)N[C@@H](CCCNC(=N)N)C(=O)N[C@@H](CCCCN)C(=O)N2)NC(=O)[C@H](CSSC[C@@H](C(=O)N[C@@H](CCCCN)C(=O)N[C@@H](Cc2ccc(O)cc2)C(=O)N[C@H](C(=O)N[C@@H](Cc2ccccc2)C(N)=O)C(C)C)NC(=O)[C@H](Cc2c[nH]c4ccccc24)NC(=O)[C@H](CCCCN)NC(=O)[C@H](Cc2cnc[nH]2)NC(=O)[C@H]([C@@H](C)O)NC(=O)[C@H](CCCNC(=N)N)NC(=O)[C@H](CO)NC3=O)NC(=O)[C@H](CCCCN)NC(=O)[C@H](CC(=O)O)NC(=O)[C@H](CC(N)=O)NC(=O)[C@H](CC(=O)O)NC(=O)[C@@H]2CCCN2C1=O (H-DCLGAMRKCIPDNDKCCRPNLVCSRTHKWCKYVF-NH2; disulfide 2-17, 9-23, 16-30)	27000		630	22.6	27	99	99
CC[C@H](C)[C@H](NC(=O)[C@H](CCC(N)=O)NC(=O)[C@H](Cc1ccc(O)cc1)NC(=O)[C@H](CCCCN)NC(=O)[C@@H]1CSSC[C@@H]2NC(=O)[C@H](CCC(N)=O)NC(=O)[C@H](CC(=O)O)NC(=O)[C@H](CC(N)=O)NC(=O)[C@H](CO)NC(=O)[C@@H]3CCCN3C(=O)[C@H](CC(N)=O)NC(=O)[C@@H]3CSSC[C@H](NC(=O)[C@H](C(C)C)NC(=O)[C@H](CC(C)C)NC(=O)[C@H](CCCCN)NC(=O)[C@H](CO)NC(=O)[C@H](CO)NC(=O)[C@H](CCCCN)NC(=O)[C@H](CSSC[C@H](NC(=O)[C@@H](N)CCC(=O)O)C(=O)N[C@@H](CC(C)C)C(=O)N[C@@H](CCC(=O)O)C(=O)N[C@@H]([C@@H](C)CC)C(=O)N[C@@H](Cc4ccccc4)C(=O)N[C@@H](CCCCN)C(=O)N[C@@H](C)C(=O)N3)NC2=O)C(=O)N[C@@H](CO)C(=O)N[C@@H](CCCNC(=N)N)C(=O)N[C@@H](CCCCN)C(=O)N[C@@H]([C@@H](C)O)C(=O)N[C@@H](CCCNC(=N)N)C(=O)N[C@@H](Cc2c[nH]c3ccccc23)C(=O)N1)C(=O)O	25000	3900	33				
CC[C@H](C)[C@@H]1NC(=O)[C@@H]2CSSC[C@@H]3NC(=O)[C@H](C(C)C)NC(=O)[C@H](CC(C)C)NC(=O)[C@H](CC(N)=O)NC(=O)[C@@H]4CCCN4C(=O)[C@H](CCCNC(=N)N)NC(=O)[C@H](CSSC[C@H](NC(=O)[C@@H](N)CC(=O)O)C(=O)N[C@@H](CC(C)C)C(=O)NCC(=O)N[C@@H](C(C)(C)C)C(=O)N[C@@H](CCSC)C(=O)N[C@@H](CCCNC(=N)N)C(=O)N[C@@H](CCCCN)C(=O)N2)NC(=O)[C@H](CSSC[C@@H](C(=O)N[C@@H](CCCCN)C(=O)N[C@@H](Cc2ccc(O)cc2)C(=O)N[C@H](C(=O)N[C@@H](Cc2ccccc2)C(N)=O)C(C)C)NC(=O)[C@H](Cc2c[nH]c4ccccc24)NC(=O)[C@H](CCCCN)NC(=O)[C@H](Cc2cnc[nH]2)NC(=O)[C@H]([C@@H](C)O)NC(=O)[C@H](CCCNC(=N)N)NC(=O)[C@H](CO)NC3=O)NC(=O)[C@H](CCCCN)NC(=O)[C@H](CC(=O)O)NC(=O)[C@H](CC(N)=O)NC(=O)[C@H](CC(=O)O)NC(=O)[C@@H]2CCCN2C1=O	> 10000		24				
CC[C@H](C)[C@@H]1NC(=O)[C@@H]2CSSC[C@@H]3NC(=O)[C@H](C(C)C)NC(=O)[C@H](CC(C)C)NC(=O)[C@H](CC(N)=O)NC(=O)[C@@H]4CCCN4C(=O)[C@H](CCCNC(=N)N)NC(=O)[C@H](CSSC[C@H](NC(=O)[C@@H](N)CC(=O)O)C(=O)N[C@@H](CC(C)C)C(=O)NCC(=O)N[C@@H](CC4CCCCC4)C(=O)N[C@@H](CCSC)C(=O)N[C@@H](CCCNC(=N)N)C(=O)N[C@@H](CCCCN)C(=O)N2)NC(=O)[C@H](CSSC[C@@H](C(=O)N[C@@H](CCCCN)C(=O)N[C@@H](Cc2ccc(O)cc2)C(=O)N[C@H](C(=O)N[C@@H](Cc2ccccc2)C(N)=O)C(C)C)NC(=O)[C@H](Cc2c[nH]c4ccccc24)NC(=O)[C@H](CCCCN)NC(=O)[C@H](Cc2cnc[nH]2)NC(=O)[C@H]([C@@H](C)O)NC(=O)[C@H](CCCNC(=N)N)NC(=O)[C@H](CO)NC3=O)NC(=O)[C@H](CCCCN)NC(=O)[C@H](CC(=O)O)NC(=O)[C@H](CC(N)=O)NC(=O)[C@H](CC(=O)O)NC(=O)[C@@H]2CCCN2C1=O	3500		4				
CC[C@H](C)[C@@H]1NC(=O)[C@@H]2CSSC[C@@H]3NC(=O)[C@H](C(C)C)NC(=O)[C@H](CC(C)C)NC(=O)[C@H](CC(N)=O)NC(=O)[C@@H]4CCCN4C(=O)[C@H](CCCNC(=N)N)NC(=O)[C@H](CSSC[C@H](NC(=O)[C@@H](N)CC(=O)O)C(=O)N[C@@H](CC(C)C)C(=O)NCC(=O)N[C@@H](C)C(=O)N[C@@H](Cc4c[nH]c5ccccc45)C(=O)N[C@@H](CCCNC(=N)N)C(=O)N[C@@H](CCCCN)C(=O)N2)NC(=O)[C@H](CSSC[C@@H](C(=O)N[C@@H](CCCCN)C(=O)N[C@@H](Cc2ccc(O)cc2)C(=O)N[C@H](C(=O)N[C@@H](Cc2ccccc2)C(N)=O)C(C)C)NC(=O)[C@H](Cc2c[nH]c4ccccc24)NC(=O)[C@H](CCCCN)NC(=O)[C@H](Cc2cnc[nH]2)NC(=O)[C@H]([C@@H](C)O)NC(=O)[C@H](CCCNC(=N)N)NC(=O)[C@H](CO)NC3=O)NC(=O)[C@H](CCCCN)NC(=O)[C@H](CC(=O)O)NC(=O)[C@H](CC(N)=O)NC(=O)[C@H](CC(=O)O)NC(=O)[C@@H]2CCCN2C1=O (H-DCLGAWRKCIPDNDKCCRPNLVCSRTHKWCKYVF-NH2; disulfide 2-17, 9-23, 16-30)	> 10000		59				
